Reference: patent US20140155445A1, “Compounds and Methods for Treating Cancer and Diseases of the Central Nervous System” (Osta Biotechnologies Inc., priority 2007, published 2014)
Counter-ions that a name gives are not always drawn. Like-named read-outs stand apart in the source and are kept apart here.

Legend:
HO-1 (rat spleen) = target: T1, HO-1 (rat spleen) (Rattus norvegicus, UniProt P06762); test: HO enzymatic activity in rat spleen microsomal fraction (CO formed from methemalbumin, gas chromatography); format: biochemical
T1 construct: Spleen microsomes were used as a source of HO-1; from tissue; host or cells: spleen microsomal fraction of adult male Sprague-Dawley rats
T1 sequence (P06762 1-289): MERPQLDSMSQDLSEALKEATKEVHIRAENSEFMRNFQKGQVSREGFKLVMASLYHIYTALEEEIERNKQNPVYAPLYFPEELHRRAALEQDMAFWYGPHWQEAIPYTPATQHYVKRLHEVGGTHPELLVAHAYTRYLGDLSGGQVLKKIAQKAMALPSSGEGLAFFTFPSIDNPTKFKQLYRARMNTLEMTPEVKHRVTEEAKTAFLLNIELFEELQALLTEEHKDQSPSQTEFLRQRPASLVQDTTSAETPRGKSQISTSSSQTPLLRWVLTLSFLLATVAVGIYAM

HO-2 (rat brain) = target: T2, HO-2 (rat brain) (Rattus norvegicus, UniProt P23711); test: HO enzymatic activity in rat brain microsomal fraction (CO formed from methemalbumin, gas chromatography); format: biochemical
T2 construct: brain microsomes were used as a source of HO-2; from tissue; host or cells: brain microsomal fraction of adult male Sprague-Dawley rats
T2 sequence (P23711 1-315): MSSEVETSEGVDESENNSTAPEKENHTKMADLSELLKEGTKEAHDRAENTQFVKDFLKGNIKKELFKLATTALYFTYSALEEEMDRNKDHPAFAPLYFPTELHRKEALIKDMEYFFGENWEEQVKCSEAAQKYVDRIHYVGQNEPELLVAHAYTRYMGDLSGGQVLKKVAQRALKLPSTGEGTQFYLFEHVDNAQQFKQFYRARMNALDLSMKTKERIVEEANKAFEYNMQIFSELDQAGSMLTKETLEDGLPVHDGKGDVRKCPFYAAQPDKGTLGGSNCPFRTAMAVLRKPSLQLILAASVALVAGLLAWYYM

[1] = rat spleen microsomes, average ± standard deviation of replicate experiments, read-out: IC50 HO-1 (rat spleen)/μM
[2] = rat brain microsomes, average ± standard deviation of replicate experiments, read-out: IC50 HO-2 (rat brain)/μM

| IC50 (HO-1 (rat spleen); [1]) [µM] | IC50 (HO-2 (rat brain); [2]) [µM] | Structure (SMILES) | other results |
| --- | --- | --- | --- |
| 3.5 ± 0.9 | > 100 | c1ccc(CCCCn2ccnc2)cc1 [1-(4-phenyl-butyl)-1H-imidazole hydrochloride] |  |
| 1.2 ± 0.2 | 5 ± 3 | c1ccc(SCCCCn2ccnc2)cc1 [1-(4-phenylsulfanyl-butyl)-1H-imidazole hydrochloride] |  |
| 1.5 ± 0.5 | 0.43 ± 0.07 | O=C(Cn1ccnc1)c1ccc(-c2ccc(Br)cc2)cc1 [1-(4′-bromo-biphenyl-4-yl)-2-imidazol-1-yl-ethanone] |  |
| 0.24 ± 0.04 | 4 ± 1 | O=C(Cn1cncn1)c1ccc2c(c1)CCCC2 [1-(5,6,7,8-tetrahydro-naphthalen-2-yl)-2-[1,2,4]triazol-1-yl-ethanone] |  |
| 22 ± 2 | > 100 | O=C(CCc1ccccc1)Cn1cncc1Br [1-(5-Bromo-1H-imidazol-1-yl)-4-phenyl-2-butanone] |  |
| > 100 | > 100 | CS(=O)(=O)c1nnnn1CC(=O)CCc1ccccc1 [1-(5-Methanesulfonyl-tetrazol-1-yl)-4-phenyl-butan-2-one] |  |
| > 100 | > 100 | CS(=O)(=O)c1nnn(CC(=O)CCc2ccccc2)n1 [1-(5-Methanesulfonyl-tetrazol-2-yl)-4-phenyl-butan-2-one] |  |
| > 100 | > 100 | CSc1nnnn1CC(=O)CCc1ccccc1 [1-(5-Methylsulfanyl-tetrazol-1-yl)-4-phenyl-butan-2-one] |  |
| > 100 | > 100 | CSc1nnn(CC(=O)CCc2ccccc2)n1 [1-(5-Methylsulfanyl-tetrazol-2-yl)-4-phenyl-butan-2-one] |  |
| 2.8 ± 0.5 | 20 ± 15 | c1ccc(CCCCCn2ccnc2)cc1 [1-(5-phenyl-pentyl)-1H-imidazole hydrochloride] |  |
|  |  | Cl.c1cn(CC2OCCO2)cn1 [1-((1,3-Dioxolan-2-yl)methyl)-1H-imidazole hydrochloride] | IC50 HO-1 (rat spleen)/μM (HO-1 (rat spleen); rat spleen microsomes, average ± standard deviation of replicate experiments): Inactive; IC50 HO-2 (rat brain)/μM (HO-2 (rat brain); rat brain microsomes, average ± standard deviation of replicate experiments): Inactive |
| > 100 | > 100 | O=C(CCc1ccccc1)Cn1nc2ccccc2n1 [1-Benzotriazol-2-yl-4-phenyl-butan-2-one] |  |
|  |  | c1ccc(Cn2ccnc2)cc1 [1-Benzyl-1H-imidazole hydrochloride] | IC50 (HO-1 (rat spleen)): 44 ± 9 µM; IC50 (HO-2 (rat brain)): > 100 µM |
| 0.74 ± 0.05 | 7 ± 4 | O=C(Cn1cncn1)c1ccc(-c2ccccc2)cc1 [1-Biphenyl-4-yl-2-[1,2,4]triazol-1-yl-ethanone] |  |
| 0.163 ± 0.009 | 0.9 ± 0.2 | CC(C)c1ccc(CCC(=O)Cn2ccnc2)cc1 [1-Imidazol-1-yl-4-(4-isopropyl-phenyl)-butan-2-one hydrochloride] |  |
| 0.76 ± 0.01 | 3.7 ± 0.1 | Cc1ccc(CCC(=O)Cn2ccnc2)cc1 [1-Imidazol-1-yl-4-(4-methylphenyl)butan-2-one hydrochloride] |  |
| 0.7 ± 0.1 | 42 ± 10 | O=C(Cn1cncn1)c1ccc2ccccc2c1 [1-Naphthalen-2-yl-2-[1,2,4]triazol-1-yl-ethanone hydrochloride] |  |

| IC50 (HO-1 (rat spleen); [1]) [µM] | IC50 (HO-2 (rat brain); [2]) [µM] | Structure (SMILES) | other results |
| --- | --- | --- | --- |
| 72 ± 11 | > 100 | c1ccc(CCn2ccnc2)cc1 [1-Phenethyl-1H-imidazole] |  |
| 29 ± 14 | > 100 | Clc1ccc(C2(Cn3ccnc3)OCCO2)c(Cl)c1 [1-[2-(2,4-dichloro-phenyl)-[1,3]dioxolan-2-ylmethyl]-1H-imidazole hydrochloride] |  |
| 8 ± 2 | > 100 | Clc1ccc(C2(Cn3ccnc3)OCCO2)cc1Cl [1-[2-(3,4-dichloro-phenyl)-[1,3]dioxolan-2-ylmethyl]-1H-imidazole] |  |
| 4 ± 0.7 | > 100 | Brc1cccc(C2(Cn3ccnc3)OCCO2)c1 [1-[2-(3-bromo-phenyl)-[1,3]dioxolan-2-ylmethyl]-1H-imidazole hydrochloride] |  |
| 4.98 ± 0.08 | > 100 | c1ccc(Cc2ccc(C3(Cn4ccnc4)OCCO3)cc2)cc1 [1-[2-(4-benzyl-phenyl)-[1,3]dioxolan-2-ylmethyl]-1H-imidazole hydrochloride] |  |
| 12 ± 2 | > 100 | Brc1ccc(C2(Cn3ccnc3)OCCO2)cc1 [1-[2-(4-bromo-phenyl)-[1,3]dioxolan-2-ylmethyl]-1H-imidazole hydrochloride] |  |
| 68.7 ± 0.6 | > 100 | Clc1ccc(C2(Cn3cncn3)OCCO2)cc1 [1-[2-(4-chloro-phenyl)-[1,3]dioxolan-2-ylmethyl]-1H-[1,2,4]triazole] |  |
| 19 ± 3 | > 100 | Clc1ccc(C2(Cn3ccnc3)OCCO2)cc1 [1-[2-(4-chloro-phenyl)-[1,3]dioxolan-2-ylmethyl]-1H-imidazole hydrochloride] |  |
| 0.38 ± 0.09 | > 100 | FC(F)(F)c1ccc(CCCCn2ccnc2)cc1 [1-[4-(4-(Trifluoromethyl)phenyl)butyl]-1H-imidazole hydrochloride] |  |
| 3.5 ± 0.8 | ~100 | O=C(CCn1ccnc1)C12CC3CC(CC(C3)C1)C2 [1-adamantan-1-yl-3-imidazol-1-yl-propan-1-one hydrochloride] |  |
| 2.2 ± 0.5 | > 100 | c1cn(CC23CC4CC(CC(C4)C2)C3)cn1 [1-adamantan-1-ylmethyl-1H-imidazole hydrochloride] |  |
| 1.5 ± 0.2 | 6 ± 0.1 | O=C(CCCc1ccccc1)Cn1ccnc1 [1-imidazol-1-yl-5-phenyl-pentan-2-one hydrochloride] |  |
| 28 ± 6 | 114 ± 56 | O=C(CCc1ccccc1)CCn1ccnc1 [1-imidazol-1-yl-5-phenyl-pentan-3-one hydrochloride] |  |
| > 100 | > 100 | Cn1ccnc1 [1-methylimidazole hydrochloride, reference compound] |  |
| 0.79 ± 0.04 | 16 ± 5 | O=C(Cn1cncn1)c1cccc2ccccc12 [1-naphthalen-1-yl-2-[1,2,4]triazol-1-yl-ethanone hydrochloride] |  |
| > 100 | > 100 | c1ccc(CCC2(Cn3nccn3)OCCO2)cc1 [2-(2-Phenethyl-[1,3]dioxolan-2-ylmethyl)-2H-[1,2,3]triazole] |  |

| Structure (SMILES) | IC50 (HO-1 (rat spleen); [1]) [µM] | IC50 (HO-2 (rat brain); [2]) [µM] | other results |
| --- | --- | --- | --- |
| CSc1ncnn1CC(=O)CCc1ccccc1 [1-(5-Methylsulfanyl-[1,2,4]triazol-1-yl)-4-phenyl-butan-2-one hydrochloride] | > 100 | > 100 |  |
| c1ccc(-n2ccnc2)cc1 [1-Phenyl-1H-imidazole hydrochloride] | > 100 | > 100 |  |
| c1ccc(CCC2(Cn3ncnn3)OCCO2)cc1 [2-(2-Phenethyl-[1,3]dioxolan-2-ylmethyl)-2H-tetrazole hydrochloride] | 72 ± 1 | > 100 |  |
| c1ccc(CCC2(Cn3ccnn3)OCCO2)cc1 [2-(2-phenethyl)-2-{(1H-[1,2,3]triazol-1-yl)methyl}-1,3-dioxolane hydrochloride] | > 100 | > 100 |  |
| c1ccc(CCC2(Cn3cncn3)OCCO2)cc1 [2-(2-phenethyl)-2-{(1H-[1,2,4]triazol-1-yl)methyl}-1,3-dioxolane hydrochloride] | 13 ± 2 | > 100 |  |
| O=C(Cn1ccnc1)c1ccc2ccc3cccc4ccc1c2c34 [2-Imidazol-1-yl-1-pyren-1-yl-ethanone hydrochloride] | 14 ± 3 | > 100 |  |
